BindingDB's records for doi:10.1021/jm980032l (Wake Forest University School of Medicine, 1998)

target: Sigma non-opioid intracellular receptor 1 (Cavia porcellus) (UniProt Q60492); assay: Binding affinity against sigma-1 receptor in guinea pig brain membranes using [3H](+)-pentazocine as the radioligand
Sequence (Q60492 whole entry, looked up): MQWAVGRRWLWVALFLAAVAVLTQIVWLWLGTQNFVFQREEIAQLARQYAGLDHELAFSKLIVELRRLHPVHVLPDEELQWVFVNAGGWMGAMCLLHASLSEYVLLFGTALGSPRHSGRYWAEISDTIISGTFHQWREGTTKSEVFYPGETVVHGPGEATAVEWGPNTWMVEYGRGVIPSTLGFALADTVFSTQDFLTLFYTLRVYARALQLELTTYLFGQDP

Going from CSc1ccc(CC(=O)NC2CCN(Cc3ccccc3)CC2)cc1 [N-(1-Benzyl-piperidin-4-yl)-2-(4-methylsulfanyl-phenyl)-acetamide] to O=C(Cc1ccc(F)cc1)NC1CCN(Cc2ccccc2)CC1 [N-(1-Benzyl-piperidin-4-yl)-2-(4-fluoro-phenyl)-acetamide], the Ki falls from 27.1 nM to 3.43 nM (7.9-fold). The second binds more tightly here.

Going from CSc1ccc(NC(=O)NC2CCN(Cc3ccccc3)CC2)cc1 [1-(1-Benzyl-piperidin-4-yl)-3-(4-methylsulfanyl-phenyl)-urea] to Nc1ccc(CC(=O)NC2CCN(Cc3ccccc3)CC2)cc1 [2-(4-Amino-phenyl)-N-(1-benzyl-piperidin-4-yl)-acetamide], the Ki rises from 63.9 nM to 470 nM (7.4-fold).

First: COc1ccc(CC(=O)NC2CCN(Cc3ccccc3)CC2)cc1OC [N-(1-Benzyl-piperidin-4-yl)-2-(3,4-dimethoxy-phenyl)-acetamide]
Second: COc1ccc(OC)c(CC(=O)NC2CCN(Cc3ccccc3)CC2)c1 [N-(1-Benzyl-piperidin-4-yl)-2-(2,5-dimethoxy-phenyl)-acetamide]
The Ki of the first is 8.1-fold higher: 352 nM for the first, 43.4 nM for the second. The second binds more tightly here.

O=C(Cc1ccccc1Cl)NC1CCN(Cc2ccccc2)CC1 [N-(1-Benzyl-piperidin-4-yl)-2-(2-chloro-phenyl)-acetamide] and O=C(Cc1ccccc1Br)NC1CCN(Cc2ccccc2)CC1 [N-(1-Benzyl-piperidin-4-yl)-2-(2-bromo-phenyl)-acetamide] are within 1.5-fold of each other in Ki: 3.08 nM for the first, 2.89 nM for the second.

Going from O=C(Cc1ccc([N+](=O)[O-])cc1)NC1CCN(Cc2ccccc2)CC1 [N-(1-Benzyl-piperidin-4-yl)-2-(4-nitro-phenyl)-acetamide] to O=C(Cc1cccc([N+](=O)[O-])c1)NC1CCN(Cc2ccccc2)CC1 [N-(1-Benzyl-piperidin-4-yl)-2-(3-nitro-phenyl)-acetamide], the Ki falls from 18 nM to 4.56 nM (3.9-fold).

Going from COc1cccc(CC(=O)NC2CCN(Cc3ccccc3)CC2)c1 [N-(1-Benzyl-piperidin-4-yl)-2-(3-methoxy-phenyl)-acetamide] to O=C(Cc1cccc(F)c1)NC1CCN(Cc2ccccc2)CC1 [N-(1-Benzyl-piperidin-4-yl)-2-(3-fluoro-phenyl)-acetamide], the Ki falls from 10.5 nM to 2.45 nM (4.3-fold). The second binds more tightly here.

First: O=C(Cc1ccc([N+](=O)[O-])cc1[N+](=O)[O-])NC1CCN(Cc2ccccc2)CC1 [N-(1-Benzyl-piperidin-4-yl)-2-(2,4-dinitro-phenyl)-acetamide]
Second: O=C(Cc1ccccc1[N+](=O)[O-])NC1CCN(Cc2ccccc2)CC1 [N-(1-Benzyl-piperidin-4-yl)-2-(2-nitro-phenyl)-acetamide]
The Ki of the first is 1.9-fold lower: 14.2 nM for the first, 26.9 nM for the second. The first binds more tightly here.

Going from COc1ccc(CC(=O)NC2CCN(Cc3ccccc3)CC2)cc1 [N-(1-Benzyl-piperidin-4-yl)-2-(4-methoxy-phenyl)-acetamide] to O=C(Cc1ccc(O)cc1)NC1CCN(Cc2ccccc2)CC1 [N-(1-Benzyl-piperidin-4-yl)-2-(4-hydroxy-phenyl)-acetamide], the Ki rises from 66.4 nM to 286 nM (4.3-fold). The first binds more tightly here.

Compared with O=C(Cc1ccc(Cl)c(Cl)c1)NC1CCN(Cc2ccccc2)CC1 [N-(1-Benzyl-piperidin-4-yl)-2-(3,4-dichloro-phenyl)-acetamide], O=C(Cc1ccc(O)c(Cl)c1)NC1CCN(Cc2ccccc2)CC1 [N-(1-Benzyl-piperidin-4-yl)-2-(3-chloro-4-hydroxy-phenyl)-acetamide] is 4.6-fold higher in Ki: 5.22 nM for the first, 23.8 nM for the second. The first binds more tightly here.

Going from O=C(Cc1cccc(O)c1)NC1CCN(Cc2ccccc2)CC1 [N-(1-Benzyl-piperidin-4-yl)-2-(3-hydroxy-phenyl)-acetamide] to O=C(Cc1cccc(Cl)c1)NC1CCN(Cc2ccccc2)CC1 [N-(1-Benzyl-piperidin-4-yl)-2-(3-chloro-phenyl)-acetamide], the Ki falls from 110 nM to 1.4 nM (79-fold). The second binds more tightly here.

Going from O=C(Cc1ccc(C(F)(F)F)cc1)NC1CCN(Cc2ccccc2)CC1 [N-(1-Benzyl-piperidin-4-yl)-2-(4-trifluoromethyl-phenyl)-acetamide] to O=C(Cc1cccc(C(F)(F)F)c1)NC1CCN(Cc2ccccc2)CC1 [N-(1-Benzyl-piperidin-4-yl)-2-(3-trifluoromethyl-phenyl)-acetamide], the Ki falls from 9.84 nM to 3.92 nM (2.5-fold).

Going from O=C(Cc1ccc(Cl)cc1Cl)NC1CCN(Cc2ccccc2)CC1 [N-(1-Benzyl-piperidin-4-yl)-2-(2,4-dichloro-phenyl)-acetamide] to O=C(Cc1ccc(F)cc1F)NC1CCN(Cc2ccccc2)CC1 [N-(1-Benzyl-piperidin-4-yl)-2-(2,4-difluoro-phenyl)-acetamide], the Ki falls from 9.66 nM to 3.87 nM (2.5-fold). The second binds more tightly here.

Compared with COc1cc(CC(=O)NC2CCN(Cc3ccccc3)CC2)cc(OC)c1OC [N-(1-Benzyl-piperidin-4-yl)-2-(3,4,5-trimethoxy-phenyl)-acetamide], COc1cc(CC(=O)NC2CCN(Cc3ccccc3)CC2)cc(OC)c1 [N-(1-Benzyl-piperidin-4-yl)-2-(3,5-dimethoxy-phenyl)-acetamide] is 1.5-fold higher in Ki: 80 nM for the first, 121 nM for the second. The first binds more tightly here.

First: O=C(Cc1cc(F)cc(F)c1)NC1CCN(Cc2ccccc2)CC1 [N-(1-Benzyl-piperidin-4-yl)-2-(3,5-difluoro-phenyl)-acetamide]
Second: O=C(Cc1ccc(F)c(F)c1)NC1CCN(Cc2ccccc2)CC1 [N-(1-Benzyl-piperidin-4-yl)-2-(3,4-difluoro-phenyl)-acetamide]
The Ki of the first is 2.4-fold higher: 7.63 nM for the first, 3.17 nM for the second.

COc1cccc(C(O)CNC2CCN(Cc3ccccc3)CC2)c1OC (stereo not given) [2-(1-Benzyl-piperidin-4-ylamino)-1-(2,3-dimethoxy-phenyl)-ethanol] and COc1ccc(NC(=O)NC2CCN(Cc3ccccc3)CC2)c(OC)c1 [1-(1-Benzyl-piperidin-4-yl)-3-(2,4-dimethoxy-phenyl)-urea] are within 1.5-fold of each other in Ki: 32.1 nM for the first, 30.1 nM for the second.

Going from O=C(Cc1ccc2c(c1)OCO2)NC1CCN(Cc2ccccc2)CC1 [2-Benzo[1,3]dioxol-5-yl-N-(1-benzyl-piperidin-4-yl)-acetamide] to O=C(Cc1cccc(Br)c1)NC1CCN(Cc2ccccc2)CC1 [N-(1-Benzyl-piperidin-4-yl)-2-(3-bromo-phenyl)-acetamide], the Ki falls from 7.32 nM to 0.87 nM (8.4-fold). The second binds more tightly here.

O=C(Cc1c(Cl)cccc1Cl)NC1CCN(Cc2ccccc2)CC1 [N-(1-Benzyl-piperidin-4-yl)-2-(2,6-dichloro-phenyl)-acetamide] and O=C(Cc1c(F)cccc1F)NC1CCN(Cc2ccccc2)CC1 [N-(1-Benzyl-piperidin-4-yl)-2-(2,6-difluoro-phenyl)-acetamide] are within 1.5-fold of each other in Ki: 7.28 nM for the first, 5.8 nM for the second.

Going from COc1ccccc1CC(=O)NC1CCN(Cc2ccccc2)CC1 [N-(1-Benzyl-piperidin-4-yl)-2-(2-methoxy-phenyl)-acetamide] to O=C(Cc1ccccc1O)NC1CCN(Cc2ccccc2)CC1 [N-(1-Benzyl-piperidin-4-yl)-2-(2-hydroxy-phenyl)-acetamide], the Ki falls from 30.8 nM to 18.8 nM (1.6-fold).

Going from O=C(Cc1ccc(Cl)cc1)NC1CCN(Cc2ccccc2)CC1 [N-(1-Benzyl-piperidin-4-yl)-2-(4-chloro-phenyl)-acetamide] to O=C(Cc1cc(F)ccc1F)NC1CCN(Cc2ccccc2)CC1 [N-(1-Benzyl-piperidin-4-yl)-2-(2,5-difluoro-phenyl)-acetamide], the Ki falls from 6.46 nM to 4.21 nM (1.5-fold). The second binds more tightly here.

O=C(Cc1ccccc1C(F)(F)F)NC1CCN(Cc2ccccc2)CC1 [N-(1-Benzyl-piperidin-4-yl)-2-(2-trifluoromethyl-phenyl)-acetamide] showed a Ki of 8.7 nM.

target: Sigma non-opioid intracellular receptor 1 (Cavia porcellus) (UniProt Q60492); assay: Compound tested for binding affinity towards sigma 1 receptor in quinea pig brain membranes using [3H](+)-pentazocine as the radioligand.

O=C(Cc1ccc(O)c(O)c1)NC1CCN(Cc2ccccc2)CC1 [N-(1-Benzyl-piperidin-4-yl)-2-(3,4-dihydroxy-phenyl)-acetamide] showed a Ki greater than 1000 nM.
